EC50 and CC50 data for 5 compounds are collected here from patent publication US10160743B2, “Sulphamoylthiophenamide derivatives and the use thereof as medicaments for the treatment of hepatitis B” (Janssen Sciences Ireland UC, priority 2013, dated 2018).

Data set [1] concerns HBV. Put plainly: Anti-HBV activity, HepG2.2.15 cell line, HBV DNA from secreted virions by realtime PCR. In kind it is cell-based, Hepatitis B virus. Conditions: HepG2.2.15 cells, 6 days of treatment.
In data set [2] the test system is HepG2 cells. Put plainly: Cytotoxicity in HepG2 cells, Resazurin assay. In kind it is cell-based. Conditions: incubated for 4 days, Resazurin viability. A general note: Alamar Blue is a resazurin reagent that responds to reducing activity.
The subject of data set [3] is HBV. Nature of the data set: Anti-HBV activity, HepG2.117 cell line (Tet-off), intracellular HBV DNA by realtime PCR. In kind it is cell-based, Hepatitis B virus. The following applies: HepG2.117 cells, 3 days of treatment.
Data set [4] can be described thus: Cytotoxicity in HepG2 cells, Resazurin assay. Format: cell-based. The following applies: human, incubated for 4 days, Resazurin viability.
Where [5] appears, read: Hepatitis B virus, HepG2.2.15, 144 h.
The mark [6] stands for this setting: Hepatitis B virus, HepG2.117, 72 h.

`Cc1cc(NC(=O)c2cc(S(=O)(=O)NC3(C)CCOC3)sc2C)ccc1F` (racemic) [Compound 16a, N-(4-fluoro-3-methyl-phenyl)-2-methyl-5-[(3-methyltetrahydrofuran-3yl)sulfamoyl]thiophene-3-carboxamide]: the EC50 worked out at 75 nM in data set [1] and 87 nM in data set [3]. For the same compound, the CC50 in data set [2] is > 25000 nM.
Turning to `Cc1cc(NC(=O)c2cc(S(=O)(=O)NC3(C)CCOC3)sc2C)ccc1F` (racemic) [Compound 16b, N-(4-fluoro-3-methyl-phenyl)-2-methyl-5-[(3-methyltetrahydrofuran-3yl)sulfamoyl]thiophene-3-carboxamide], the EC50 was 28 nM in data set [1] and 26 nM in data set [3]. Also, the CC50 in data set [2] was > 25000 nM.
With `Cc1sc(S(=O)(=O)NC2(C(F)(F)F)CC2)cc1C(=O)Nc1ccc(F)c(C#N)c1` [Compound 53, N-(3-cyano-4-fluoro-phenyl)-2-methyl-5-[[1-(trifluoromethyl)cyclo-propyl]sulfamoyl]thiophene-3-carboxamide], the values for the EC50 in data set [1] (setting [5]) and in data set [3] (setting [6]) were 120 nM and 140 nM, respectively. For the same compound, it took 13700 nM to reach half-maximal cytotoxicity in data set [4] (CC50 at 4 days).
For `Cc1sc(S(=O)(=O)N[C@H](C)C(C)(F)F)cc1C(=O)Nc1ccc(F)c(F)c1` [Compound 55, 5-[[(1R)-2,2-difluoro-1-methyl-propyl]sulfamoyl]-N-(3,4-difluorophenyl)-2-methyl-thiophene-3-carboxamide], the EC50 came to 32 nM in data set [1] (setting [5]) and 90 nM in data set [3] (setting [6]). In addition, the midpoint of cytotoxicity in data set [4], the CC50 at 4 days, lay at 14600 nM.
Turning to `Cc1sc(S(=O)(=O)N[C@H](C)C(F)(F)F)cc1C(=O)Nc1ccc(F)c(F)c1` [Compound 56, N-(3,4-difluorophenyl)-2-methyl-5-[[(1R)-2,2,2-trifluoro-1-methyl-ethyl]sulfamoyl]thiophene-3-carboxamide], the EC50 in data set [1] (setting [5]) came out at 130 nM; in data set [3] (setting [6]), 70 nM. Also, the CC50 at 4 days in data set [4] was 14900 nM.

The term EC50 denotes the midpoint of the concentration-response curve. A low value points to an effect from little substance. A word on the CC50: it is the concentration that lowers cell viability or growth by half. Lower therefore signals greater toxicity to the cells.
